The values below come from patent US12655126B2, “Imidazole-pyrazole derivatives as antibacterials” (Hoffmann-La Roche Inc., priority 2020, dated 2026).

Molecules are shown by their SMILES. Where a name gives a salt, the structure may show the parent alone.

One assay concerns Acinetobacter baumannii ATCC17961. The assay can be described thus: Antimicrobial susceptibility testing: 90% growth inhibitory concentration (IC90) determination. In kind it is cell-based. To be noted: Acinetobacter baumannii ATCC17961; Iso-Sensitest broth; growth by OD 600 nm over 16 h; 90% growth inhibitory concentration; read-out: ATCC 17961 IC90. How it is done: Antimicrobial Susceptibility Testing:
90% Growth Inhibitory Concentration (IC90) Determination
The in vitro antimicrobial activity of the compounds was determined according to the following procedure:
The assay used a 10-points Iso-Sensitest broth medium to measure quantitatively the in vitro activity of the compounds against Acinetobacter baumannii ATCC17961.
Stock compounds in DMSO were serially twofold diluted (e.g. range from 50 to 0.097 μM final concentration) in 384 wells microtiter plates and inoculated with 49 μl the bacterial suspension in Iso-Sensitest medium to have a final cell concentration of ˜5×10^(5) CFU/ml in a final volume/well of 50 ul/well. Microtiter plates were incubated at 35±2° C.
Bacterial cell growth was determined with the measurement of optical density at λ=600 nm each minutes over a time course of 16 h. Growth inhibition was calculated during the logarithmic growth of the bacterial cells with determination of the concentration inhibiting 50% (IC50) and 90% (IC90) of the growth.
Table 1 provides the 90% growth inhibitory concentrations (IC90) in micromoles per liter of the compounds of present invention obtained against the strain Acinetobacter baumannii ATCC17961.
Take `Cn1c(-c2cn(-c3ccc(N)cn3)nc2C(F)(F)F)cnc1C(=O)Nc1ccc(C(=O)N2CCN(C(=O)[C@@H]3[C@@H](O)CC[N+]3(C)C)CC2)c(Cl)c1` (racemic) [Example D2, 5-[1-(5-amino-2-pyridyl)-3-(trifluoromethyl)pyrazol-4-yl]-N-[3-chloro-4-[4-[(2S,3S)-3-hydroxy-1,1-dimethyl-pyrrolidin-1-ium-2-carbonyl]piperazine-1-carbonyl]phenyl]-1-methyl-imidazole-2-carboxamide; formate]: the IC90 is 400 nM.
With `Cn1c(-c2cn(-c3ccc(N)cn3)nc2C(F)(F)F)cnc1C(=O)Nc1ccc(C(=O)N2CCN(C(=O)[C@@H]3CC[N+](C)(C)C[C@@H]3O)CC2)c(Cl)c1` (stereo in doubt) [Example D5, 5-[1-(5-amino-2-pyridyl)-3-(trifluoromethyl)pyrazol-4-yl]-N-[3-chloro-4-[4-[(3R,4R)-3-hydroxy-1,1-dimethyl-piperidin-1-ium-4-carbonyl]piperazine-1-carbonyl]phenyl]-1-methyl-imidazole-2-carboxamide; formate], the IC90 was 240 nM.
On to `Cn1c(-c2cn(-c3ccc(N)cn3)nc2C(F)(F)F)cnc1C(=O)Nc1ccc(C(=O)N2CCN(C(=O)[C@@H]3CC[N+](C)(C)C[C@H]3O)CC2)c(Cl)c1` (stereo in doubt) [Example D6, 5-[1-(5-amino-2-pyridyl)-3-(trifluoromethyl)pyrazol-4-yl]-N-[3-chloro-4-[4-[(3S,4R)-3-hydroxy-1,1-dimethyl-piperidin-1-ium-4-carbonyl]piperazine-1-carbonyl]phenyl]-1-methyl-imidazole-2-carboxamide; formate], for which the IC90 is 370 nM.
Turning to `Cn1c(-c2cn(-c3ccc(N)cn3)nc2C(F)(F)F)cnc1C(=O)Nc1ccc(C(=O)N2CCN(C(=O)[C@H]3CC[N+](C)(C)C[C@H]3O)CC2)c(Cl)c1` (stereo in doubt) [Example D7, 5-[1-(5-amino-2-pyridyl)-3-(trifluoromethyl)pyrazol-4-yl]-N-[3-chloro-4-[4-[(3S,4S)-3-hydroxy-1,1-dimethyl-piperidin-1-ium-4-carbonyl]piperazine-1-carbonyl]phenyl]-1-methyl-imidazole-2-carboxamide; formate], the IC90 came to 400 nM.
The same measure, in the same setting: the result for `Cn1c(-c2cn(-c3ccc(N)cn3)nc2C(F)(F)F)cnc1C(=O)Nc1ccc(C(=O)N2CCN(C(=O)[C@H]3CC[N+](C)(C)C[C@@H]3O)CC2)c(Cl)c1` (stereo in doubt) [Example D8, 5-[1-(5-amino-2-pyridyl)-3-(trifluoromethyl)pyrazol-4-yl]-N-[3-chloro-4-[4-[(3R,4S)-3-hydroxy-1,1-dimethyl-piperidin-1-ium-4-carbonyl]piperazine-1-carbonyl]phenyl]-1-methyl-imidazole-2-carboxamide; formate] reads 230 nM; that for `Cn1c(-c2cn(-c3ccc(C(N)=O)cn3)nc2C(F)(F)F)cnc1C(=O)Nc1ccc(C(=O)N2CCN(C(=O)C3CC[N+](C)(C)CC3)CC2)c(Cl)c1` [Example A2, 6-[4-[2-[[3-chloro-4-[4-(1,1-dimethylpiperidin-1-ium-4-carbonyl)piperazine-1-carbonyl]phenyl]carbamoyl]-3-methyl-imidazol-4-yl]-3-(trifluoromethyl)pyrazol-1-yl]pyridine-3-carboxamide; formate], 980 nM; that for `CNC(=O)c1ccc(-n2cc(-c3cnc(C(=O)Nc4ccc(C(=O)N5CCN(C(=O)C6CC[N+](C)(C)CC6)CC5)c(Cl)c4)n3C)c(C(F)(F)F)n2)nc1` [Example A3, 6-[4-[2-[[3-chloro-4-[4-(1,1-dimethylpiperidin-1-ium-4-carbonyl)piperazine-1-carbonyl]phenyl]carbamoyl]-3-methyl-imidazol-4-yl]-3-(trifluoromethyl)pyrazol-1-yl]-N-methyl-pyridine-3-carboxamide; formate], 820 nM.
For `Cc1ccc(-n2cc(-c3cnc(C(=O)Nc4ccc(C(=O)N5CCN(C(=O)C6CC[N+](C)(C)CC6)CC5)c(Cl)c4)n3C)c(C(F)(F)F)n2)nc1` [Example A4, N-[3-chloro-4-[4-(1,1-dimethylpiperidin-1-ium-4-carbonyl)piperazine-1-carbonyl]phenyl]-1-methyl-5-[1-(5-methyl-2-pyridyl)-3-(trifluoromethyl)pyrazol-4-yl]imidazole-2-carboxamide; formate], the 90% effect concentration (IC90) is 250 nM.
Take `Cn1c(-c2cn(-c3ccc(N)cn3)nc2C(F)F)cnc1C(=O)Nc1ccc(C(=O)N2CCN(C(=O)C3CC[N+](C)(C)CC3)CC2)c(Cl)c1` [Example A5, 5-[1-(5-amino-2-pyridyl)-3-(difluoromethyl)pyrazol-4-yl]-N-[3-chloro-4-[4-(1,1-dimethylpiperidin-1-ium-4-carbonyl)piperazine-1-carbonyl]phenyl]-1-methyl-imidazole-2-carboxamide; 2,2,2-trifluoroacetate]: the 90% effect concentration (IC90) is 760 nM.
Regarding `COc1ccc(-n2cc(-c3cnc(C(=O)Nc4ccc(C(=O)N5CCN(C(=O)C[N+]6(C)CC[C@@H](O)C6)CC5)c(Cl)c4)n3C)c(C(F)(F)F)n2)nc1` (stereo partly drawn) [Example A7, N-[3-chloro-4-[4-[2-[(3R)-3-hydroxy-1-methyl-pyrrolidin-1-ium-1-yl]acetyl]piperazine-1-carbonyl]phenyl]-5-[1-(5-methoxy-2-pyridyl)-3-(trifluoromethyl)pyrazol-4-yl]-1-methyl-imidazole-2-carboxamide; formate], the concentration for an effect of 90% (IC90) came out at 550 nM.
Consider `Cn1c(-c2cn(-c3ncc(N)cc3F)nc2C(F)(F)F)cnc1C(=O)Nc1ccc(C(=O)N2CCN(C(=O)C3CC[N+](C)(C)CC3)CC2)c(Cl)c1` [Example A8, 5-[1-(5-amino-3-fluoro-2-pyridyl)-3-(trifluoromethyl)pyrazol-4-yl]-N-[3-chloro-4-[4-(1,1-dimethylpiperidin-1-ium-4-carbonyl)piperazine-1-carbonyl]phenyl]-1-methyl-imidazole-2-carboxamide], for which the IC90 turned out to be 330 nM.
Regarding `Cc1cc(-n2cc(-c3cnc(C(=O)Nc4ccc(C(=O)N5CCN(C(=O)C6CC[N+](C)(C)CC6)CC5)c(Cl)c4)n3C)c(C(F)(F)F)n2)ncc1N` [Example A9, 5-[1-(5-amino-4-methyl-2-pyridyl)-3-(trifluoromethyl)pyrazol-4-yl]-N-[3-chloro-4-[4-(1,1-dimethylpiperidin-1-ium-4-carbonyl)piperazine-1-carbonyl]phenyl]-1-methyl-imidazole-2-carboxamide], the IC90 was 290 nM.
As for `Cn1c(-c2cn(-c3ccc(N)c(F)n3)nc2C(F)(F)F)cnc1C(=O)Nc1ccc(C(=O)N2CCN(C(=O)C3CC[N+](C)(C)CC3)CC2)c(Cl)c1` [Example A10, 5-[1-(5-amino-6-fluoro-2-pyridyl)-3-(trifluoromethyl)pyrazol-4-yl]-N-[3-chloro-4-[4-(1,1-dimethylpiperidin-1-ium-4-carbonyl)piperazine-1-carbonyl]phenyl]-1-methyl-imidazole-2-carboxamide], the IC90 was 510 nM.

Staying with this assay, now noted: Acinetobacter baumannii, ATCC17961, 16 h, read-out: ATCC 17961 IC90.
In the case of `Cn1c(-c2cn(-c3ncccn3)nc2C(F)(F)F)cnc1C(=O)Nc1ccc(C(=O)N[C@H]2[C@@H]3CN(C(=O)[C@@H]4C[C@@H](O)C[N+]4(C)C)C[C@@H]32)c(Cl)c1` (racemic) [Example B8, rac-(2R,4S)-2-((1R,5S,6S)-6-(2-chloro-4-(1-methyl-5-(1-(pyrimidin-2-yl)-3-(trifluoromethyl)-1H-pyrazol-4-yl)-1H-imidazole-2-carboxamido)benzamido)-3-azabicyclo[3.1.0]hexane-3-carbonyl)-4-hydroxy-1,1-dimethylpyrrolidin-1-ium], the IC90 was determined as 1500 nM.
For `Cn1c(-c2cn(-c3ccc(N)cn3)nc2C(F)(F)F)cnc1C(=O)Nc1ccc(C(=O)N[C@H]2[C@@H]3CN(C(=O)N[C@@H]4C[N+](C)(C)C[C@H]4O)C[C@@H]32)c(Cl)c1` (racemic) [Example D18, (exo)-6-[[4-[[5-[1-(5-Aminopyridin-2-yl)-3-(trifluoromethyl)pyrazol-4-yl]-1-methylimidazole-2-carbonyl]amino]-2-chlorobenzoyl]amino]-N-[rac-(trans)-4-hydroxy-1,1-dimethylpyrrolidin-1-ium-3-yl]-3-azabicyclo[3.1.0]hexane-3-carboxamide; formate], the IC90 was 290 nM.
The same measure, in the same setting: the result for `COc1ccc(-n2cc(-c3cnc(C(=O)Nc4ccc(C(=O)N5CCN(C(=O)C6CC[N+](C)(C)CC6)CC5)c(Cl)c4)n3C)c(C(F)(F)F)n2)nc1` [Example A1, N-[3-Chloro-4-[4-(1,1-dimethylpiperidin-1-ium-4-carbonyl)piperazine-1-carbonyl]phenyl]-5-[1-(5-methoxy-2-pyridyl)-3-(trifluoromethyl)pyrazol-4-yl]-1-methyl-imidazole-2-carboxamide; formate] reads 95 nM; that for `Cn1c(-c2cn(-c3ncccn3)nc2C(F)(F)F)cnc1C(=O)Nc1ccc(C(=O)N2CCN(C(=O)C[N+]3(C)CC[C@@H](O)C3)CC2)c(Cl)c1` (stereo partly drawn) [Example A6, N-[3-chloro-4-[4-[2-[(3R)-3-hydroxy-1-methyl-pyrrolidin-1-ium-1-yl]acetyl]piperazine-1-carbonyl]phenyl]-1-methyl-5-[1-pyrimidin-2-yl-3-(trifluoromethyl)pyrazol-4-yl]imidazole-2-carboxamide; formate], 1300 nM.

What is called IC90 is the concentration at which the effect reaches the 90% level.
